Experimental data taken from patent publication US12140600B2, “Method for measuring activated partial thromboplastin time” (SYSMEX CORPORATION, priority 2019, dated 2024).

Test: Effect of suppressing precipitation of ellagic acid-metal ion complex (salting out, dynamic light scattering and visual check)
Type: physicochemical
Conditions: for degree of increase in particle size of complex with respect to the increase in salt concentration / precipitation, visually confirmed: additive 100 μM; for degree of increase in particle size of complex with respect to the increase in salt concentration: sodium chloride 10, 50 or 100 mM, FIG. 3; for precipitation, visually confirmed: sodium chloride concentration 100 mM; for precipitation suppressing effect versus additive concentration: additive at various concentrations, FIGS. 4A and 4B
Protocol: In an APTT reagent comprising a metal ion complex of ellagic acid as an activator, when the salt concentration increases, the complex particle size increases by the salting-out effect, and finally precipitation occurs. By utilizing the principle of salting out, the effect of suppressing the precipitation of various additives in ellagic acid-metal ion complex solutions was confirmed.
An ellagic acid-metal ion complex solution was prepared to contain 50 mM HEPES, 8 mM TAPS, and 1% by mass glycine as buffer components, 100 μM ellagic acid, 60 μM zinc chloride, and 50 μM aluminum chloride as a metal ion complex of ellagic acid, and 0.05% ProClin (trademark) 300 (Sigma-Aldrich Co., LLC.) as a preservative. A complex solution comprising each additive at a concentration of 100 μM was obtained by mixing this solution with any one selected from gallic acid, pyrogallol, hydroquinone, 5-methylpyrogallol, resorcinol, or cyclohexanetriol as an additive. As a control, an ellagic acid-metal ion complex solution not comprising an additive was used.
Each complex solution prepared in (1) above was mixed with a 5 M sodium chloride solution to obtain a mixed solution (test group) having a sodium chloride concentration of 10 mM, 50 mM, or 100 mM. The relationship between the salt concentration in each mixed solution and the average particle size of complex was confirmed by a dynamic scattered light method using Zetasizer Nano (Malvern Panalytical Ltd.). The results are illustrated in FIG. 3.
The effect of suppressing precipitation was confirmed in the same manner as in (2) above using the complex solutions containing gallic acid or pyrogallol at various concentrations. The results are illustrated in FIGS. 4A and 4B.

degree of increase in particle size of complex with respect to the increase in salt concentration	SMILES	precipitation, visually confirmed	precipitation suppressing effect versus additive concentration
small	O=C(O)c1cc(O)c(O)c(O)c1 [gallic acid]	precipitation has not been visually confirmed	precipitation suppressing effect is observed at all concentrations
small	Oc1cccc(O)c1O [pyrogallol]	precipitation has not been visually confirmed	precipitation suppressing effect is observed at all concentrations
